Measurements as given in PubChem BioAssay (NCI).
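Grown in 96-well plates, cells were treated for 48 hours with each compound at five concentrations. Insufficient inhibition: endpoint recorded as highest concentration tested. The concentration for full growth arrest is given as TGI.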

Key:
Experiment in all cases: growth of human tumour cells (NCI), 48 h
LOX IMVI melanoma = system: LOX IMVI melanoma
UACC-62 melanoma = system: UACC-62 melanoma
SF-268 CNS = system: SF-268 CNS
ACHN renal = system: ACHN renal
SK-OV-3 ovarian = system: SK-OV-3 ovarian
SNB-19 CNS = system: SNB-19 CNS
UO-31 renal = system: UO-31 renal
SK-MEL-28 melanoma = system: SK-MEL-28 melanoma
HOP-62 NSCLC = system: HOP-62 NSCLC
KM20L2 colon = system: KM20L2 colon
A549 NSCLC = system: A549 NSCLC
DMS 114 small cell lung = system: DMS 114 small cell lung
KM12 colon = system: KM12 colon
HL-60(TB) leukemia = system: HL-60(TB) leukemia
SK-MEL-5 melanoma = system: SK-MEL-5 melanoma
COLO 205 colon = system: COLO 205 colon
TK-10 renal = system: TK-10 renal
UACC-257 melanoma = system: UACC-257 melanoma
IGROV1 ovarian = system: IGROV1 ovarian
SN12C renal = system: SN12C renal
CAKI-1 renal = system: CAKI-1 renal
OVCAR-8 ovarian = system: OVCAR-8 ovarian
MALME-3M melanoma = system: MALME-3M melanoma
SNB-75 CNS = system: SNB-75 CNS
RXF 393 renal = system: RXF 393 renal
CCRF-CEM leukemia = system: CCRF-CEM leukemia
EKVX NSCLC = system: EKVX NSCLC
DMS 273 small cell lung = system: DMS 273 small cell lung
DLD-1 colon = system: DLD-1 colon
SR leukemia = system: SR leukemia
OVCAR-3 ovarian = system: OVCAR-3 ovarian
U251 CNS = system: U251 CNS
NCI-H460 lung = system: NCI-H460 lung
HT29 colon = system: HT29 colon
NCI-H522 lung = system: NCI-H522 lung
HOP-92 NSCLC = system: HOP-92 NSCLC
OVCAR-5 ovarian = system: OVCAR-5 ovarian
HCT-116 colon = system: HCT-116 colon
XF 498 CNS = system: XF 498 CNS
SK-MEL-2 melanoma = system: SK-MEL-2 melanoma
K-562 leukemia = system: K-562 leukemia
MOLT-4 leukemia = system: MOLT-4 leukemia
NCI-H23 lung = system: NCI-H23 lung
M14 melanoma = system: M14 melanoma
RPMI-8226 leukemia = system: RPMI-8226 leukemia
HCT-15 colon = system: HCT-15 colon
HCC-2998 colon = system: HCC-2998 colon
786-0 renal = system: 786-0 renal
LXFL 529 NSCLC = system: LXFL 529 NSCLC
OVCAR-4 ovarian = system: OVCAR-4 ovarian
SNB-78 CNS = system: SNB-78 CNS
SF-539 CNS = system: SF-539 CNS
NCI-H226 lung = system: NCI-H226 lung
M19-MEL melanoma = system: M19-MEL melanoma
SF-295 CNS = system: SF-295 CNS
SW-620 colon = system: SW-620 colon
A498 renal = system: A498 renal
DU-145 prostate = system: DU-145 prostate
MDA-MB-231 breast = system: MDA-MB-231 breast
MDA-MB-435 = system: MDA-MB-435
MCF7 breast = system: MCF7 breast
HS 578T breast = system: HS 578T breast
T-47D breast = system: T-47D breast
MDA-N = system: MDA-N
PC-3 prostate = system: PC-3 prostate
NCI/ADR-RES ovarian = system: NCI/ADR-RES ovarian
BT-549 breast = system: BT-549 breast

Q: `CCOC1=C2N=C(C(CC)c3ccc(F)cc3)N=C2C(=O)c2ccccc21` (configuration not stated) was tested. Which TGI (LOX IMVI melanoma) did it give?
A: 29.7 µM

Q: And the TGI (UACC-62 melanoma)?
A: 29.7 µM

Q: What about the TGI (SF-268 CNS) of the same molecule?
A: 99.4 µM

Q: And the TGI (ACHN renal)?
A: > 81.6 µM

Q: And the TGI (SK-OV-3 ovarian)?
A: > 100 µM

Q: And the TGI (SNB-19 CNS)?
A: > 100 µM

Q: And the TGI (UO-31 renal)?
A: 55.5 µM

Q: What about the TGI (SK-MEL-28 melanoma) of the same molecule?
A: > 89.4 µM

Q: What about the TGI (HOP-62 NSCLC) of the same molecule?
A: > 100 µM

Q: And the TGI (KM20L2 colon)?
A: 50.7 µM

Q: And the TGI (A549 NSCLC)?
A: > 85.8 µM

Q: What about the TGI (DMS 114 small cell lung) of the same molecule?
A: > 68.4 µM

Q: And the TGI (KM12 colon)?
A: > 56.5 µM

Q: What about the TGI (HL-60(TB) leukemia) of the same molecule?
A: > 73.7 µM

Q: What about the TGI (SK-MEL-5 melanoma) of the same molecule?
A: 26.9 µM

Q: And the TGI (COLO 205 colon)?
A: 47 µM

Q: What about the TGI (TK-10 renal) of the same molecule?
A: 66.7 µM

Q: What about the TGI (UACC-257 melanoma) of the same molecule?
A: 49 µM

Q: What about the TGI (IGROV1 ovarian) of the same molecule?
A: > 100 µM

Q: And the TGI (SN12C renal)?
A: > 66.7 µM

Q: And the TGI (CAKI-1 renal)?
A: 84.7 µM

Q: And the TGI (OVCAR-8 ovarian)?
A: > 100 µM

Q: And the TGI (MALME-3M melanoma)?
A: 61.8 µM

Q: And the TGI (SNB-75 CNS)?
A: 81.5 µM

Q: What about the TGI (RXF 393 renal) of the same molecule?
A: 39.5 µM

Q: And the TGI (CCRF-CEM leukemia)?
A: > 100 µM

Q: And the TGI (EKVX NSCLC)?
A: > 79.7 µM

Q: And the TGI (DMS 273 small cell lung)?
A: > 72.1 µM

Q: What about the TGI (DLD-1 colon) of the same molecule?
A: > 30.4 µM

Q: What about the TGI (SR leukemia) of the same molecule?
A: 89.2 µM

Q: And the TGI (OVCAR-3 ovarian)?
A: > 91.1 µM

Q: And the TGI (U251 CNS)?
A: 53.5 µM

Q: What about the TGI (NCI-H460 lung) of the same molecule?
A: > 79.8 µM

Q: And the TGI (HT29 colon)?
A: 45.3 µM

Q: What about the TGI (NCI-H522 lung) of the same molecule?
A: 76.7 µM

Q: What about the TGI (HOP-92 NSCLC) of the same molecule?
A: 66.3 µM

Q: What about the TGI (OVCAR-5 ovarian) of the same molecule?
A: > 100 µM

Q: What about the TGI (HCT-116 colon) of the same molecule?
A: > 61.3 µM

Q: What about the TGI (XF 498 CNS) of the same molecule?
A: 40.1 µM

Q: And the TGI (SK-MEL-2 melanoma)?
A: 39.5 µM

Q: What about the TGI (K-562 leukemia) of the same molecule?
A: > 100 µM

Q: And the TGI (MOLT-4 leukemia)?
A: > 86.2 µM

Q: What about the TGI (NCI-H23 lung) of the same molecule?
A: 70.2 µM

Q: And the TGI (M14 melanoma)?
A: > 68.3 µM

Q: And the TGI (RPMI-8226 leukemia)?
A: > 88.5 µM

Q: And the TGI (HCT-15 colon)?
A: > 100 µM

Q: And the TGI (HCC-2998 colon)?
A: > 100 µM

Q: What about the TGI (786-0 renal) of the same molecule?
A: > 100 µM

Q: What about the TGI (LXFL 529 NSCLC) of the same molecule?
A: > 90.3 µM

Q: What about the TGI (OVCAR-4 ovarian) of the same molecule?
A: > 94.4 µM

Q: What about the TGI (SNB-78 CNS) of the same molecule?
A: 89.8 µM

Q: What about the TGI (SF-539 CNS) of the same molecule?
A: 21.6 µM

Q: And the TGI (NCI-H226 lung)?
A: 41.6 µM

Q: What about the TGI (M19-MEL melanoma) of the same molecule?
A: > 59.4 µM

Q: What about the TGI (SF-295 CNS) of the same molecule?
A: 63.7 µM

Q: What about the TGI (SW-620 colon) of the same molecule?
A: > 100 µM

Q: What does the source list for `COc1ccc2nc3c(nc2c1)C(C)(C)C=C3c1ccc(Br)cc1`?
A: TGI (LOX IMVI melanoma): > 100 µM; TGI (SF-268 CNS): > 100 µM; TGI (ACHN renal): > 100 µM; TGI (SNB-19 CNS): > 100 µM; TGI (A498 renal): > 100 µM; TGI (HOP-62 NSCLC): > 100 µM; TGI (DU-145 prostate): > 100 µM; TGI (A549 NSCLC): > 100 µM; TGI (KM12 colon): > 100 µM; TGI (HL-60(TB) leukemia): > 100 µM; TGI (SK-MEL-5 melanoma): > 100 µM; TGI (COLO 205 colon): > 100 µM; TGI (TK-10 renal): > 100 µM; TGI (UACC-257 melanoma): > 100 µM; TGI (IGROV1 ovarian): > 100 µM; TGI (MDA-MB-231 breast): > 100 µM; TGI (MDA-MB-435): > 100 µM; TGI (SN12C renal): > 100 µM; TGI (CAKI-1 renal): > 100 µM; TGI (MCF7 breast): > 100 µM; TGI (OVCAR-8 ovarian): > 100 µM; TGI (MALME-3M melanoma): > 100 µM; TGI (HS 578T breast): > 100 µM; TGI (T-47D breast): > 100 µM; TGI (SNB-75 CNS): > 100 µM; TGI (RXF 393 renal): > 100 µM; TGI (CCRF-CEM leukemia): > 100 µM; TGI (EKVX NSCLC): > 100 µM; TGI (MDA-N): > 100 µM; TGI (SR leukemia): > 100 µM; TGI (U251 CNS): > 100 µM; TGI (NCI-H460 lung): > 100 µM; TGI (HT29 colon): > 100 µM; TGI (NCI-H522 lung): > 100 µM; TGI (HOP-92 NSCLC): > 100 µM; TGI (OVCAR-5 ovarian): > 100 µM; TGI (HCT-116 colon): > 100 µM; TGI (SK-MEL-2 melanoma): > 100 µM; TGI (PC-3 prostate): > 100 µM; TGI (MOLT-4 leukemia): > 100 µM; TGI (NCI/ADR-RES ovarian): > 100 µM; TGI (M14 melanoma): > 100 µM; TGI (RPMI-8226 leukemia): > 100 µM; TGI (HCT-15 colon): > 100 µM; TGI (HCC-2998 colon): > 100 µM; TGI (786-0 renal): > 100 µM; TGI (OVCAR-4 ovarian): > 100 µM; TGI (SF-539 CNS): > 100 µM; TGI (NCI-H226 lung): > 100 µM; TGI (BT-549 breast): > 100 µM; TGI (SW-620 colon): 21.9 µM
